Reference: patent publication US20220274927A1, “MEMBRANE-ACTIVE ANTI-BACTERIAL COMPOUNDS AND USES THEREOF” (Trustees of Dartmouth College, priority 2019, published 2022)
≈ marks a conversion by molar mass, not a printed value. Entries after “also recorded” stand apart in the source; their conditions may differ. Read-outs that look alike come from different tables or passages of the source.

Assays:
[1] = test system: methicillin-resistant S. aureus (FPR3757); test: MIC against clinical MRSA strain FPR3757 in Mueller-Hinton broth (CLSI); type: cell-based, Staphylococcus aureus
Source text: (§1) The first set of compounds evaluated were analogs at the C-7 and C-8 positions of the initial quinolone hit DNAC-2 since the other HTS hits identified (data not shown) were substituted at these positions (Table 1). Applicants first explored modification at the C-7 position with a small series of electron-donating and withdrawing substituents. […] However, analogs containing electron donating groups at C-7 including ethyl 7, benzyloxy 8, methoxy 9 and methylthio 10 are weakly active displaying MICs of 320-640 μg/mL indicating electron-donating substituents at C-7 are poorly tolerated. […] The C-8 position was evaluated with trifluoromethyl 4 and trifluoromethoxy 5 containing the optimal C-7 substituents. Both 4 and 5 are equipotent to the corresponding C-7 analogs 2 and 3 indicating some flexibility of the quinolone scaffold.

C. albicans = test: Antimicrobial susceptibility, C. albicans; type: cell-based, Candida albicans; settings: highest concentration tested
Source text: (§2) The compounds maintain activity against Staphylococcus epidermidis; however, 31, 111 and 123 all lose considerable potency against Enterococcus faecalis and Enterococcus faecium, which contribute heavily, along with MRSA, to healthcare-associated infections.

E. cloacae ND-21 = test: Antimicrobial susceptibility MIC, E. cloacae ND-21; type: cell-based; settings: Enterobacter cloacae, ND21; E. cloacae strain ND-21
Source text: as §1, §2

E. faecium ATCC19579 = test: Antimicrobial susceptibility MIC, E. faecium ATCC19579; type: cell-based; settings: Enterococcus faecium
Source text: as §1, §2

E. coli DHMC-1 = test: Antimicrobial susceptibility MIC, E. coli DHMC-1; type: cell-based; settings: Escherichia coli, DHMC1; E. coli strain DHMC-1
Source text: as §1, §2

S. aureus NIH04008 = test: Antimicrobial susceptibility MIC, S. aureus NIH04008; type: cell-based; settings: Staphylococcus aureus, NIH04008
Source text: as §1, §2

S. aureus MW2 = test: Antimicrobial susceptibility MIC, S. aureus MW2; type: cell-based; settings: Staphylococcus aureus, MW2
Source text: as §1, §2

K. pneumonia 7117 = test: Antimicrobial susceptibility MIC, K. pneumonia 7117; type: cell-based; settings: Klebsiella pneumoniae; K. pneumonia strain 7117
Source text: as §1, §2

[2] = test system: MRSA clinical strain S. aureus FPR3757; test: Minimum bactericidal concentration (MBC) against S. aureus FPR3757; type: cell-based
E. faecalis SMC374 = test: Antimicrobial susceptibility MIC, E. faecalis SMC374; type: cell-based; settings: Enterococcus faecalis
Source text: as §1, §2

S. aureus (MRSA) = test: In vitro time-kill assay; type: cell-based; settings: 1× MIC, initial inoculum 10^5 CFU, plating over six hours
Experimental: FIG. 4 illustrates in vitro time-kill analysis of methicillin resistant Staphylococcus aureus (MRSA). Bacterial killing was monitored by measuring the colony forming unit (CFU) for six hours when treated with compounds 22, 31, 117, and 123 at 1× the minimum inhibitory concentration (MIC) of each compound. The CFU at each time point was determined by plating and then compared to a dimethyl sulfoxide (DMSO) control.
While the MIC data confirmed that these compounds were at least bacteriostatic, Applicants wanted to test for bactericidal properties of both the aminoquinoline and aminoquinolone scaffolds. […] The kinetics of bacterial killing was assessed in vitro using time-kill assays by incubating compounds at 1× their MIC with an initial inoculum of 10^5 colony forming units (CFU) of S. aureus and removing aliquots at various time points to determine the residual CFU by plating.

[3] = test system: S. aureus (strain USA300); test: Transmission electron microscopy of treated cells; type: cell-based; settings: 1× MIC, after 10 minutes, vs DMSO
Experimental: FIGS. 6A, 6B and 6C illustrate transmission electron microscopy (TEM) imaging of MRSA USA300 treated with compounds 22 and 31.
Transmission electron microscopy (TEM) and fluorescence microscopy (FM) allowed Applicants to directly observe the effects of the novel 4-aminoquinolines […] 5-aminoquinolones on the cell morphology of staphylococci.
(§3) These cellular defects were not seen in any of the control cells treated with DMSO. Fluorescent microscopy was performed on a S. aureus (strain COL) strain after treatment with either DMSO, 31 or 123 for 30 minutes followed by staining with FM 4-64 (red membrane stain), bodipy-vancomycin (Van-FL, green stain), and Hoechst (blue DNA stain).

Staphylococcus simulans = test: Macromolecular synthesis assays (radiolabeled precursor incorporation); type: cell-based
Source text: FIG. 5 illustrates macromolecular synthesis assays (representative data with 123). Time-course for inhibition of incorporation of radiolabeled precursors [^3H]-L-isoleucine (protein), [^3H]-thymidine (DNA), [^3H]-uridine (RNA), and [^3H]-glucosamine (cell wall) in S. simulans by 123 at 0.5×, 1× and 5×MIC. Data are expressed as the percentage of inhibition relative to the DMSO only negative control. The positive control antibiotics denoted by closed circles were used at 10× MIC. Data represent the mean±standard deviation (SD) of triplicate experiments.
Classical macromolecular synthesis assays were performed to provide insight on the putative mechanism of action of the most promising quinoline 31 and quinolone 123 candidates. Disruption of bacterial membranes is not only rapid, but interferes with all major metabolic activities in the cell and is thus easily distinguished by macromolecular synthesis assays. […] The control antibiotics ciprofloxacin, rifampicin, vancomycin and tetracycline were included as inhibitors of DNA, RNA, cell wall, and protein synthesis, respectively. The cells were quenched at various time points with 10% trichloroacetic acid (TCA), filtered, washed and the amount of precursor incorporation was quantified by scintillation counting.

sheep erythrocytes = test: in vitro; type: cell-based; settings: sheep, 32 μg/mL
Experimental: (§4) FIG. 8 illustrates percent hemolysis analysis of sheep erythrocytes. Concentration-dependent hemolysis was measured by monitoring the optical density (OD)540 of PBS-washed sheep erythrocytes. Complete hemolysis (100%) was confirmed by treatment of erythrocytes with Triton X-100. Data points represent the mean±SD of triplicate experiments.
(§5) The macromolecular synthesis assay, TEM, and FM experiments were all consistent with membrane disruption. […] The high membrane selectivity of the 5-aminoquinolin-4-ones in this assay is impressive and is in accordance with the observed therapeutic index (CC50/MIC).

[4] = test system: clinical methicillin-resistant Staphylococcus aureus (MRSA) isolates; test: MIC against panel of MRSA / staphylococcal strains (text summaries); type: cell-based; settings: six S. aureus strains of Table 9, read-out: MIC towards all six S. aureus strains
Source text: as §1, §2

S. aureus (strain COL) = test: Fluorescent microscopy of membrane, cell wall and DNA; type: cell-based; settings: 1× MIC, 30 minutes, vs DMSO
Experimental: FIGS. 7A and 7B illustrate fluorescent microscopy (FM) analysis of the membrane, cell wall, and DNA in MRSA. FM of COL MRSA strain treated with compound 123 (FIG. 7B, bottom row) at 1×MIC and DMSO (FIG. 7A, top row) for 30 minutes followed by staining with FM-64 (far left column, 0.5 μg/mL), VanFL (second column, 1 μg/mL), and Hoechst (third column, 1 μg/mL) for 5 minutes and washed with 1× phosphate buffered saline (PBS) before imaging (fourth column, overlay).
as §3

[5] = test system: S. aureus membranes (versus erythrocyte membranes); test: in vitro; type: cell-based, sheep; settings: sheep
Experimental: as §4, §5

[6] = test system: erythrocyte membranes (versus S. aureus membranes); test: in vitro; type: cell-based, sheep; settings: sheep; read-out: selectivity for S. aureus membranes over erythrocyte membranes
Experimental: as §4, §5

[7] = Staphylococcus aureus, MRSA, MRSA clinical strain FPR3757, Mueller-Hinton broth, CLSI guidelines, complete inhibition of observable growth, read-out: MIC

Row | Structure (SMILES) | MIC [1, 7] | MIC against C. albicans as multiple of MIC (C. albicans) | MIC (E. cloacae ND-21) | MIC (E. coli DHMC-1) | MIC (S. aureus NIH04008) | MIC (S. aureus MW2) | MIC (K. pneumonia 7117) | MBC relative to MIC [2] | time-kill: CFU reduction (S. aureus (MRSA)) | selectivity ratio [5] | further results
1 | FC(F)(F)c1ccc2c(Nc3ccc(Cl)c(Cl)c3)cc(C(F)(F)F)nc2c1 [Compound 22] | 0.06 µg/mL (≈ 0.141 µM) | >16× × MIC | > 4 µg/mL | > 4 µg/mL | 0.125 µg/mL (≈ 0.294 µM) | 0.125 µg/mL (≈ 0.294 µM) | > 4 µg/mL | MBCs equal to their MIC values | reduced the CFU below the limit of detection at four to six hours | – | MIC ([1]; Staphylococcus aureus, MRSA): 0.0625 µg/mL (≈ 0.147 µM); MIC (E. faecium ATCC19579; ATCC19579): 0.125 µg/mL (≈ 0.294 µM); MIC (E. faecalis SMC374; SMC374): 0.125 µg/mL (≈ 0.294 µM)
2 | FC(F)(F)c1ccc(Nc2cc(C(F)(F)F)nc3cc(C(F)(F)F)ccc23)nc1 [Compound 31] | 0.25 µg/mL (≈ 0.588 µM) | >16× × MIC | > 64 µg/mL | > 64 µg/mL | 0.125 µg/mL (≈ 0.294 µM) | 0.125 µg/mL (≈ 0.294 µM) | > 64 µg/mL | MBCs equal to their MIC values | reduced the CFU below the limit of detection at four to six hours | – | fold loss of potency (MIC) relative to the comparator ([1]; MRSA FPR3757 MIC ratio): 4 fold; cell morphology in TEM images [3]: cross-wall-septum formation with reduced splitting; also recorded: mesosome-like membrane inclusions; inhibition of DNA, RNA, protein and cell-wall synthesis (Staphylococcus simulans; 0.5×, 1× and 5× MIC): concentration-dependent inhibition of DNA, RNA, protein and cell-wall synthesis; inhibition of macromolecular processes at 5× MIC (Staphylococcus simulans; 5× the MIC, DNA, RNA, protein, cell wall precursor incorporation): completely inhibited all macromolecular processes; hemolysis (sheep erythrocytes): None of the compounds except 76, displayed any hemolysis; MIC (E. faecium ATCC19579; E. faecium strain ATCC19579, read-out: MIC): 0.25 to 1 µg/mL (≈ 0.588 to 2.35 µM); MIC [4]: 0.125 to 0.25 µg/mL (≈ 0.294 to 0.588 µM); DNA and cell wall staining (Hoechst, Van-FL) (S. aureus (strain COL)): little or no change compared to the DMSO control; membrane staining (FM 4-64) (S. aureus (strain COL)): membrane defects; MIC (E. faecalis SMC374; E. faecalis strain SMC374, read-out: MIC): 2 µg/mL (≈ 4.7 µM)
3 | O=c1cc(C(F)(F)F)[nH]c2cc(C(F)(F)F)cc(Nc3ccc(Cl)c(Cl)c3)c12 [Compound 108] | < 0.06 µg/mL | – | – | – | – | – | – | – | – | > 500 | –
4 | O=c1cc(C(F)(F)F)[nH]c2cc(C(F)(F)F)cc(Nc3ccc(F)c(F)c3)c12 [Compound 109] | < 0.06 µg/mL | – | – | – | – | – | – | – | – | > 500 | –
5 | O=c1cc(C(F)(F)F)[nH]c2cc(C(F)(F)F)cc(Nc3cccc(OC(F)(F)F)c3)c12 [Compound 110] | 0.06 to 0.12 µg/mL (≈ 0.132 to 0.263 µM) | – | – | – | – | – | – | – | – | – | selectivity ratio [6]: > 500
6 | O=c1cc(C(F)(F)F)[nH]c2cc(C(F)(F)F)cc(Nc3cccc4[nH]ncc34)c12 [Compound 116] | 1 to 2 µg/mL (≈ 2.43 to 4.85 µM) | – | – | – | – | – | – | – | – | – | MIC ([1]; MRSA clinical strain FPR3757, Mueller-Hinton broth, CLSI guidelines, complete inhibition of observable growth): 2 µg/mL (≈ 4.85 µM)
